Values quoted from earlier work, collected in US20110053979A1, “PYRIDINE DERIVATIVES USED TO TREAT OREXIN RELATED DISORDERS” (priority 2008, published 2011).

Assays:
rats [1] = conditions: central administration at the onset of the normal sleep period, rat
freely-feeding rats = conditions: central administration, 4 hour time period
rats [2] = system: rats
rats [3] = system: rats; remark: listed apart in the source

Row | Compound | effect on arousal (rats [1]) | increase of food intake over control rats receiving vehicle (freely-feeding rats) | effect on hedonic eating (rats [2]) | effect on high-fat pellet self-administration (rats [3])
1 | orexin-A: polypeptide ligand for the orexin-1 receptor; an agonist of the orexin receptors (QPLPDCCRQKTCSCRLYELLHGAGNHAAGILTL; Orexin-A; UniProt O43612 34-66, looked up) | dose-related increase in arousal | approximately four-fold |  | 
2 | Cc1nc2ccc(NC(=O)Nc3ccnc4cccnc34)cc2o1 [SB334867] |  |  | potently reduced hedonic eating | attenuated high-fat pellet self-administration
